Assays:
[1] = system: GBM6 cells; assay: Alamar blue viability assay, GBM6 stem-like cells; details: GBM6 (cancer stem cell)
Method: Cell survival assays. Alamar blue assay was used to evaluate cell viability following the manufacture's protocol (Life Technologies). […] AB assay was conducted at 2 days after transfection. Cells were washed with PBS (pH 7.4) three times before adding 10% AB in complete growth medium to the wells. After incubation for 1 hr, the AB solution was transferred to a 96-well plate, and fluorescent emissions at an excitation wavelength of 550 nm and an emission wavelength of 590 nm were read on a SpectraMax M5 microplate reader (Molecular Devices).

[2] = system: A1235 cells; assay: Clonogenic assay, MGMT-deficient A1235 cells; details: A1235 (GBM cell line)
[3] = system: GBM6 orthotopic xenograft; assay: Kaplan-Meier survival, orthotopic GBM6 xenograft; format: in vivo, NOD-SCID mice
Method: The mice were closely monitored during the entire treatment period until the time of euthanasia. […] Mice treated with NP-siMGMT-CTX extended their lifespan for 18.3 days while mice treated with TMZ alone extended their lifespan for 2.3 days.
Orthotopic xenograft tumor model and therapy response experiments. All xenograft therapy evaluations were conducted using a GBM6 orthotopic tumor model. The human GBM6 tumor was provided by the Mayo Clinic. The procedure for establishing intracranial tumors was described previously (B. L. Carlson, J. L. Pokorny, M. A. Schroeder, J. N. Sarkaria, Current Protocols in Pharmacology 2011, 52, 1; B. L. Carlson, P. T. Grogan, A. C. Mladek, M. A. Schroeder, G. J. Kitange, P. A. Decker, C. Giannini, W. Wu, K. A. Ballman, C. D. James, J. N. Sarkaria, International Journal of Radiation Oncology, Biology, Physics 2009, 75, 212). In brief, flank GBM6 tumor xenografts were harvested, mechanically disaggregated and stereotaxically injected into the frontal lobe of 6-week-old female NOD-SCID mice (Jackson Laboratories). […] At about 4 weeks post-tumor implantation, mice with similar tumor size as evaluated by MRI were randomized to one treatment group treated with NP-siMGMT-CTX+TMZ, and three control groups treated with either NP-siGFP-CTX+TMZ, TMZ only, or untreated. […]

[4] = system: SF763 cells; assay: Clonogenic assay, MGMT-proficient SF763 cells; details: SF763 (GBM cell line)
[5] = systemic administration; cited from earlier work
[6] = system: primary brain tumors; details: cited from earlier work

Cn1nnc2c(C(N)=O)ncn2c1=O [TMZ, temozolomide]
TMZ required for effective treatment [1]: 4 mM
TMZ required for effective treatment [2]: 10 µM
median survival ([3]; NPs given with TMZ per FIG. 5A schedule, TMZ 100 mg/kg oral): 40.8 ± 2.7 days
extension of lifespan ([3]; versus untreated mice): 2.3 days
TMZ required for effective treatment [4]: 400 µM

Nc1nc(OCc2ccccc2)c2nc[nH]c2n1 [BG, O^6-benzylguanine]
toxicity in combination with TMZ [5]: severe myelotoxicity

chlorotoxin [CTX]
primary brain tumors targeted, of those examined [6]: 74 out of 79

Source: patent US20230405145A1, “IRON OXIDE NANOPARTICLE FOR SUPPRESSING DRUG-RESISTANT GENE FOR THE TREATMENT OF GLIOBLASTOMA” (University of Washington, priority 2020, published 2023)
